# From article PMC3331904 (2012)
# pIC50: −log10 of the molar value.
# Molecular target: TORC1 (TOR complex 1 kinase) (Saccharomyces cerevisiae, UniProt P35169)
# Assay: TORC1 in vitro kinase assay
# Format: biochemical
# Chain of TORC1 (TOR complex 1 kinase) (P35169 whole entry): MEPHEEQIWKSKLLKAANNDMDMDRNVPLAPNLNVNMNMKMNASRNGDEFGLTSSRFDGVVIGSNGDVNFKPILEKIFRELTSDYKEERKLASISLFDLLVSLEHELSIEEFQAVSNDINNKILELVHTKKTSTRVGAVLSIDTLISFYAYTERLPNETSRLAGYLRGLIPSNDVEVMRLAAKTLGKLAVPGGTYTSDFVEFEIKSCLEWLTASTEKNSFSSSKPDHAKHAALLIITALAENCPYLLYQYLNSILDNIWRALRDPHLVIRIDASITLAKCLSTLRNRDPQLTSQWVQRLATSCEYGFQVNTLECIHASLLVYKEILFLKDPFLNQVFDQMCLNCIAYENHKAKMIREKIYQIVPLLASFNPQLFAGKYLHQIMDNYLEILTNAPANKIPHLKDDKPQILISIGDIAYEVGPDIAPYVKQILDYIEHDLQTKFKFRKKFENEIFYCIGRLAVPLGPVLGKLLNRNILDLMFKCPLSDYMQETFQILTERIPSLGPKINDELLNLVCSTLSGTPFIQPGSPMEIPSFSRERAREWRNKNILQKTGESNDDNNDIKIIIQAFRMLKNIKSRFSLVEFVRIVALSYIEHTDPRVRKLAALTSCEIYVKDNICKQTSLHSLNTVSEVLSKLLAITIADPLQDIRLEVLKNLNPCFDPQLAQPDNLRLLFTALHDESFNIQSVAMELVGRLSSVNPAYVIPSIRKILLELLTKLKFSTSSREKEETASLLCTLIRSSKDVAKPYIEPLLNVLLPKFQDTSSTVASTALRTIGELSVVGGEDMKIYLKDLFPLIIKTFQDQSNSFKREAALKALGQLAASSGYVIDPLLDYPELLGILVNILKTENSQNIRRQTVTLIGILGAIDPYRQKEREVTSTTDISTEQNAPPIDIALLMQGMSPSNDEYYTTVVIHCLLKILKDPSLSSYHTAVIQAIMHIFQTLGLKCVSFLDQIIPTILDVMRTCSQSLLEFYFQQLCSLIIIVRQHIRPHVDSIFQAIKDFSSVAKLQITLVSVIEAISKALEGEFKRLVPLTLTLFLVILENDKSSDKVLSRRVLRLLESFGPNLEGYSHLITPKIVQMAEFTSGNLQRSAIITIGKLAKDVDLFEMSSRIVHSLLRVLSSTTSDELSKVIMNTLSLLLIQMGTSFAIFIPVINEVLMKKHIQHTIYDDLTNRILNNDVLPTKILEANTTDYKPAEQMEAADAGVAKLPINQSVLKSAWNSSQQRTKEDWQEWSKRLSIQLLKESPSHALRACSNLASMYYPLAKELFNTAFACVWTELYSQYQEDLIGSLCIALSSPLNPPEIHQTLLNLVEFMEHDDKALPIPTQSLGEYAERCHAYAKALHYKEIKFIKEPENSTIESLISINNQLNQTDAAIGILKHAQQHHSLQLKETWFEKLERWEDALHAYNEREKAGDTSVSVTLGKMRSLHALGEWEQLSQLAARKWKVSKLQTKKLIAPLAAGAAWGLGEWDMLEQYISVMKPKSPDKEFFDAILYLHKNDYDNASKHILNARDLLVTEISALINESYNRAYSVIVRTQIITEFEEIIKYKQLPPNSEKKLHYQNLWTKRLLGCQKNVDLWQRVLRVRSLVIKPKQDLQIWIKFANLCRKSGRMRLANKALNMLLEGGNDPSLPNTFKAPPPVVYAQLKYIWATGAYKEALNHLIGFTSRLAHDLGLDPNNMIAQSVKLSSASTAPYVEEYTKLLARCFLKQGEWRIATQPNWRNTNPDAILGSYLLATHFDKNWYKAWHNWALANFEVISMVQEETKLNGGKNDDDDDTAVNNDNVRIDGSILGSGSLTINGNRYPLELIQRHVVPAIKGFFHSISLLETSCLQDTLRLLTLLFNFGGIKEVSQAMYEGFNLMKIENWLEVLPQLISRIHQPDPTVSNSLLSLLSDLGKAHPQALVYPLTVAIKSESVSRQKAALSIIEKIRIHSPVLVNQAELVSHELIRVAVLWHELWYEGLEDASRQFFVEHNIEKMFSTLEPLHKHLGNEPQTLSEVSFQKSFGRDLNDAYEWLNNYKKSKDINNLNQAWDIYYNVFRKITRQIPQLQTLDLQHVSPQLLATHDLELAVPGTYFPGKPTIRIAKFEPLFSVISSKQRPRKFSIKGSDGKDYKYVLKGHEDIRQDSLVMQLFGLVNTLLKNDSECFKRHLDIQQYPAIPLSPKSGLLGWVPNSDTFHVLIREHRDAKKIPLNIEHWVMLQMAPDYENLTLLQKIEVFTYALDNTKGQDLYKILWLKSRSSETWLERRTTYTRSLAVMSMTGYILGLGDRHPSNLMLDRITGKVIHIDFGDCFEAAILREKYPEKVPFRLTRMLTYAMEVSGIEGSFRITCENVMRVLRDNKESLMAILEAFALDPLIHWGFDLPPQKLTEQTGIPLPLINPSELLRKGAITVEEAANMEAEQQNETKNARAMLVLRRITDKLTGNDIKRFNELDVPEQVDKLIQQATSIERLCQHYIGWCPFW
# Chain of TORC1 (TOR complex 1 kinase) (P38873 whole entry partner): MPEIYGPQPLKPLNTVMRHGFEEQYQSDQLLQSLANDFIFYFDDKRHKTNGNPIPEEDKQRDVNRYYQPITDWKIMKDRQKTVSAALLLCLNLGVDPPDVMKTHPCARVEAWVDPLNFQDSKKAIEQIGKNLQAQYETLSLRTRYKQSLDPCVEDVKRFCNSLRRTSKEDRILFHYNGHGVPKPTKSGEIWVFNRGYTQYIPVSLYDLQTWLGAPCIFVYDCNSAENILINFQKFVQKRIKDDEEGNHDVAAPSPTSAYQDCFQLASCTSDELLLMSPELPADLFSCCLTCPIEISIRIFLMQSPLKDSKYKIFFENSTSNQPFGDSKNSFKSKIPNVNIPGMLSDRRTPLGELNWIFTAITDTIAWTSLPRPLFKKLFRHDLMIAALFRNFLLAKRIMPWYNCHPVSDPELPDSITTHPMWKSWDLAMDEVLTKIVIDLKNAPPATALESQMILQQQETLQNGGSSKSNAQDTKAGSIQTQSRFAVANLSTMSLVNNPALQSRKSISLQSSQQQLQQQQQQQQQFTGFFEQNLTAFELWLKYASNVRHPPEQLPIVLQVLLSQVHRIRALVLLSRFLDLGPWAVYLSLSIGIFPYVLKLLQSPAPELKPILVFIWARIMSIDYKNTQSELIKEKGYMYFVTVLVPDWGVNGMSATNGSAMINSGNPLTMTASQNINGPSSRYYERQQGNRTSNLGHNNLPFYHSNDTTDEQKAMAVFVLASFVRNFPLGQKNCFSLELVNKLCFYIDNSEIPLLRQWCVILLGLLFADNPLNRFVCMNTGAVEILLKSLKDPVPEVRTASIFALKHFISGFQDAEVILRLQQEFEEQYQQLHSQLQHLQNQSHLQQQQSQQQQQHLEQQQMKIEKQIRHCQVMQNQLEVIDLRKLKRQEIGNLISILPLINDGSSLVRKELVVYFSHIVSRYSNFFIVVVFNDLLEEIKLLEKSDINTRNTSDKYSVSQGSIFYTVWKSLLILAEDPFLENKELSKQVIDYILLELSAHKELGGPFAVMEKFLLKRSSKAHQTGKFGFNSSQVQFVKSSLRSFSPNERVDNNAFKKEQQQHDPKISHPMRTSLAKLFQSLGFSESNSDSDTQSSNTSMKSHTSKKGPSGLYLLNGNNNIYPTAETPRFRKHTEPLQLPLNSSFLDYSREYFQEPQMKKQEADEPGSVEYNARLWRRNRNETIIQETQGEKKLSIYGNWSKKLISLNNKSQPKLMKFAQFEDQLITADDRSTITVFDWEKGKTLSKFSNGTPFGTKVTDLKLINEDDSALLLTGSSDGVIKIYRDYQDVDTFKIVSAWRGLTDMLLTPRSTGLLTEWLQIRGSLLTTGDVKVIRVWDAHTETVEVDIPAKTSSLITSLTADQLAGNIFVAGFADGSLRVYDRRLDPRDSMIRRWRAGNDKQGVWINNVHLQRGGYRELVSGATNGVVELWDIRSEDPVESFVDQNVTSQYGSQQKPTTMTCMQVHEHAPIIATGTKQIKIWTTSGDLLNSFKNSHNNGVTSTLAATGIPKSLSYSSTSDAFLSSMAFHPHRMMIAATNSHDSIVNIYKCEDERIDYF
smiles,measurement,value
CNc1nc(N)c([N+](=O)[O-])c(Nc2cccc(F)c2)n1 [CID 3528206],pIC50,~6.82
